Laboratory results as given in patent publication US20150209294A1, “PHARMACEUTICAL COMPOSITION AND PROCESS” (Hoffmann-La Roche Inc., priority 2006, published 2015).

Legend:
[1] = permeability of R 411; format: in vitro ADME; settings: limited permeability
[2] = oral bioavailability in rats; settings: rat, in vivo
[3] = oral bioavailability in monkeys; settings: monkey, in vivo
[4] = pH-dependent chemical stability (hydrolysis of ester linkage); format: physicochemical; settings: at pH>6
[5] = oral bioavailability in dogs; settings: dog, in vivo

permeability [1]: 58×10^−6 cm^2/sec
bioavailability [2]: 20%
bioavailability [3]: 6%
stability to hydrolysis [4]: prone to alkaline hydrolysis
bioavailability [5]: 20%
Compound: CCN(CC)CCOC(=O)[C@H](Cc1ccc(NC(=O)c2c(Cl)cccc2Cl)cc1)NC(=O)c1c(C)cccc1Cl.Cl [R 411, N-(2-chloro-6-methylbenzoyl)-4-[(2,6-dichlorobenzoyl)amino]-L-phenylalanine-2-(diethylamino)ethyl ester hydrochloride]
